Here are results for four compounds from ChEMBL document CHEMBL1201862, “PubChem BioAssay data set” (2004).

The structures appear in SMILES notation.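 These data come from cells grown in 96-well plates and exposed to compound for 48 hours at five concentrations. The concentration for 50% growth inhibition is given as GI50.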 Calls of active or inactive are those of the source. Rule as the data show it: active = GI50 up to about 1.1 µM and inactive = higher.

Among the test systems are U-251; TK-10; SN12C; M14; MOLT-4; SR; BT-549; Malme-3M; CAKI-1; HT-29; 786-0; EKVX; COLO 205; SK-MEL-28; HCC 2998; Hs-578T; NCI-H522; HCT-116; SK-OV-3; OVCAR-3.
Experiment in all cases: DTP human tumour cell line panel, 48 h

For orientation: GI50 means the concentration giving 50% growth inhibition. As for `CC1(C)S[C@H](CN)N[C@H]1C(=O)OC(c1ccccc1)c1ccccc1`, the GI50 with U-251 is 33 µM (inactive); with TK-10 it was 61.7 µM (inactive); with SN12C it was 32.4 µM (inactive); with M14, 34.2 µM (inactive); in the assay on MOLT-4, 24.3 µM (inactive); with SR, 27.9 µM (inactive). Besides, the GI50 with BT-549 was 24.8 µM (inactive); in the assay on Malme-3M, 31.4 µM (inactive); in the assay with CAKI-1 it was 34.4 µM (inactive); in the assay with HT-29, 33.7 µM (inactive); in the assay with 786-0 it was 48.5 µM (inactive); with EKVX it was 47.2 µM (inactive). The GI50 with COLO 205 was 17.6 µM (inactive); in the assay on SK-MEL-28, 56.5 µM (inactive); in the assay with HCC 2998, 18.6 µM (inactive); in the assay with Hs-578T it was 83.2 µM (inactive); in the assay with NCI-H522 it was 31.9 µM (inactive); in the assay on HCT-116 it was 33.8 µM (inactive). Besides, in the assay with SK-OV-3, the GI50 was 78.3 µM (inactive).

Turning to `Cc1c2c(c(C)n1-c1ccccc1)C(=O)N(CCCCN1CCN(c3ccccc3)CC1)C2=O`, the GI50 in the assay with U-251 was 14.5 µM (inactive); with TK-10 it was 30.2 µM (inactive); in the assay with OVCAR-3 it was 8.95 µM (inactive); with SN12C it was 13.1 µM (inactive); in the assay on M14 it was 9.53 µM (inactive); with MOLT-4, 5.71 µM (inactive). Also, the GI50 in the assay with SR was 8.85 µM (inactive); in the assay on BT-549 it was 16.9 µM (inactive); with Malme-3M, 4.03 µM (inactive); in the assay with CAKI-1, 31.1 µM (inactive); in the assay on HT-29 it was 2.57 µM (inactive); in the assay with 786-0 it was 4.97 µM (inactive). Also, the GI50 in the assay with EKVX is 10 µM (inactive); in the assay on COLO 205, 6.62 µM (inactive); in the assay on HCC 2998, 4.99 µM (inactive); in the assay with Hs-578T it was 20.2 µM (inactive); with NCI-H522, 12.9 µM (inactive); in the assay on HCT-116, 7.71 µM (inactive). Moreover, in the assay on SK-OV-3, the GI50 is 27.4 µM (inactive).

On to `CCOC(=O)C1=CCOc2cc(N(C)C)ccc21`, for which the GI50 in the assay on U-251 was > 100 µM (inactive); in the assay on TK-10 it was > 100 µM (inactive); with OVCAR-3 it was 21.7 µM (inactive); with SN12C, > 100 µM (inactive); in the assay with M14, > 100 µM (inactive); with SR, 65.9 µM (inactive). In addition, the GI50 with BT-549, with Malme-3M, with CAKI-1, with HT-29, with 786-0 and in the assay on EKVX was > 100 µM (inactive) throughout. For the same compound, the GI50 in the assay on COLO 205 is > 100 µM (inactive); in the assay on SK-MEL-28 it was > 100 µM (inactive); with HCC 2998, > 100 µM (inactive); in the assay on Hs-578T it was > 100 µM (inactive); in the assay with NCI-H522 it was 45.3 µM (inactive); in the assay on HCT-116 it was > 100 µM (inactive). In addition, the GI50 with SK-OV-3 is > 100 µM (inactive).

On to `C[C@@](O)(/C=C/[C@H]1CC=CC(=O)O1)[C@@H](C[C@@H](O)\C=C/C=C\C=C\CO)OP(=O)(O)O` [FOSTRIECIN SODIUM], for which the GI50 in the assay on U-251 is 17.1 µM (inactive); in the assay on TK-10, 12.8 µM (inactive); in the assay with SN12C, 9.33 µM (inactive); in the assay with M14 it was 0.634 µM (active); in the assay with SR, 3.99 µM (inactive); in the assay with BT-549, 9.59 µM (inactive). For the same compound, the GI50 in the assay on Malme-3M is 4.74 µM (inactive); with CAKI-1 it was 1.81 µM (inactive); with HT-29, 1.75 µM (inactive); in the assay on 786-0 it was 5.36 µM (inactive); in the assay with EKVX, 16.5 µM (inactive); in the assay with COLO 205, 3.08 µM (inactive). The GI50 with SK-MEL-28 is 7.28 µM (inactive); with HCC 2998 it was 4.28 µM (inactive); in the assay on Hs-578T, 5.51 µM (inactive); with NCI-H522 it was 17.3 µM (inactive); in the assay with HCT-116 it was 3.26 µM (inactive); with SK-OV-3, 10.2 µM (inactive).
